Experiments:
[1] = biological target: T1, ABL1(H396P)-nonphosphorylated (Homo sapiens, UniProt P00519, H396P); test: KINOMEscan; format: binding; conditions: read-out: %Ctrl @ 10000nM
T1 construct: purchased DiscoverX KINOMEscan

ACVR1 = biological target: T2, ACVR1 (Homo sapiens, UniProt Q04771); test: KINOMEscan; format: binding; conditions: read-out: %Ctrl @ 10000nM
T2 construct: purchased DiscoverX KINOMEscan

ACVR2A = biological target: T3, ACVR2A (Homo sapiens, UniProt P27037); test: KINOMEscan; format: binding; conditions: read-out: %Ctrl @ 10000nM
T3 construct: purchased DiscoverX KINOMEscan

BRAF(V600E) = biological target: T4, BRAF(V600E) (Homo sapiens, UniProt P15056, V600E); test: KINOMEscan; format: binding; conditions: read-out: %Ctrl @ 10000nM
T4 construct: purchased DiscoverX KINOMEscan

BRK = biological target: T5, BRK (Homo sapiens, UniProt Q13882); test: KINOMEscan; format: binding; conditions: read-out: %Ctrl @ 10000nM
T5 construct: purchased DiscoverX KINOMEscan
T5 sequence (Q13882 whole entry): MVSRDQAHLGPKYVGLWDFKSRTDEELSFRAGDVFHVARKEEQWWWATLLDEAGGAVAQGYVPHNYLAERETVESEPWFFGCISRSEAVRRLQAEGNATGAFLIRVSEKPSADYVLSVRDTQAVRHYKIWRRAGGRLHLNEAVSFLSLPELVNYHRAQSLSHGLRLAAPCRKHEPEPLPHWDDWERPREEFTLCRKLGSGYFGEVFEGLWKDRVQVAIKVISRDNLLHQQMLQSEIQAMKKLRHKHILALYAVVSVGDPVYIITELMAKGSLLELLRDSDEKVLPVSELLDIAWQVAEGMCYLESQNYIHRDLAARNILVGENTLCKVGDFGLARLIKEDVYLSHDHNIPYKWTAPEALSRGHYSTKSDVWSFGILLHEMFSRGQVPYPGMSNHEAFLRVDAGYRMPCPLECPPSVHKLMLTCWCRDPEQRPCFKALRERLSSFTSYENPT

CDC2L1 = biological target: T6, CDC2L1 (Homo sapiens, UniProt P21127); test: KINOMEscan; format: binding; conditions: read-out: %Ctrl @ 10000nM
T6 construct: purchased DiscoverX KINOMEscan

CDK11 = biological target: T7, CDK11 (Homo sapiens, UniProt Q9BWU1); test: KINOMEscan; format: binding; conditions: read-out: %Ctrl @ 10000nM
T7 construct: purchased DiscoverX KINOMEscan

CDK4-cyclinD3 = biological target: T8, CDK4-cyclinD3 (Homo sapiens, UniProt P11802); test: KINOMEscan; format: binding; conditions: read-out: %Ctrl @ 10000nM
T8 construct: purchased DiscoverX KINOMEscan

CHEK2 = biological target: T9, CHEK2 (Homo sapiens, UniProt O96017); test: KINOMEscan; format: binding; conditions: read-out: %Ctrl @ 10000nM
T9 construct: purchased DiscoverX KINOMEscan

CLK2 = biological target: T10, CLK2 (Homo sapiens, UniProt P49760); test: KINOMEscan; format: binding; conditions: read-out: %Ctrl @ 10000nM
T10 construct: purchased DiscoverX KINOMEscan
T10 sequence (P49760 whole entry): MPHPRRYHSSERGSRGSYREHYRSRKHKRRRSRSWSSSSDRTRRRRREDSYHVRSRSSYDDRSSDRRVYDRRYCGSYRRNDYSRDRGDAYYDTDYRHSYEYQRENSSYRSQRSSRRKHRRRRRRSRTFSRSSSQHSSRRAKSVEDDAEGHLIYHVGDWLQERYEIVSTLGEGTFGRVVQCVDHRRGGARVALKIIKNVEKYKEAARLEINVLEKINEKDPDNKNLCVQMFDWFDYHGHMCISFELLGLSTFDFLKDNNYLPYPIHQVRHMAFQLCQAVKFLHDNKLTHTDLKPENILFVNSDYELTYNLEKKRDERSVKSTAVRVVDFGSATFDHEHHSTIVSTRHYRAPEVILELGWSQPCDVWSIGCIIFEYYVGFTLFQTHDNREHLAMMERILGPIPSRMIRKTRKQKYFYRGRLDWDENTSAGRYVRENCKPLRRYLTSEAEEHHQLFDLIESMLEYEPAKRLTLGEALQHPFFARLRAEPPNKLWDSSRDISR

CLK3 = biological target: T11, CLK3 (Homo sapiens, UniProt P49761); test: KINOMEscan; format: binding; conditions: read-out: %Ctrl @ 10000nM
T11 construct: purchased DiscoverX KINOMEscan

CLK4 = biological target: T12, CLK4 (Homo sapiens, UniProt Q9HAZ1); test: KINOMEscan; format: binding; conditions: read-out: %Ctrl @ 10000nM
T12 construct: purchased DiscoverX KINOMEscan

CSF1R = biological target: T13, CSF1R (Homo sapiens, UniProt P07333); test: KINOMEscan; format: binding; conditions: read-out: %Ctrl @ 10000nM
T13 construct: purchased DiscoverX KINOMEscan

CSK = biological target: T14, CSK (Homo sapiens, UniProt P41240); test: KINOMEscan; format: binding; conditions: read-out: %Ctrl @ 10000nM
T14 construct: purchased DiscoverX KINOMEscan
T14 sequence (P41240 whole entry): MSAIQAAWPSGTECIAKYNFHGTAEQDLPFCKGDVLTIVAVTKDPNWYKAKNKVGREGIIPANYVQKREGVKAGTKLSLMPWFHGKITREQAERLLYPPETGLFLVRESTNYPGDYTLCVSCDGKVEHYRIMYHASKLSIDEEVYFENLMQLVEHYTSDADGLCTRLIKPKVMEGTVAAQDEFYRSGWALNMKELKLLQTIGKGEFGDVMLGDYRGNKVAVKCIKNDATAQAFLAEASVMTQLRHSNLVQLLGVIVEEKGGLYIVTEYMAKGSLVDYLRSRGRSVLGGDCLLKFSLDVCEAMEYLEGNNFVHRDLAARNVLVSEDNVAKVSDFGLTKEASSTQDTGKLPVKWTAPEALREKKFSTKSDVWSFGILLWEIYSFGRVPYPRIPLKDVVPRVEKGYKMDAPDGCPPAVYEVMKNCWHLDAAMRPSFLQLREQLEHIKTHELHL

CSNK1D = biological target: T15, CSNK1D (Homo sapiens, UniProt P48730); test: KINOMEscan; format: binding; conditions: read-out: %Ctrl @ 10000nM
T15 construct: purchased DiscoverX KINOMEscan

DDR1 = biological target: T16, DDR1 (Homo sapiens, UniProt Q08345); test: KINOMEscan; format: binding; conditions: read-out: %Ctrl @ 10000nM
T16 construct: purchased DiscoverX KINOMEscan

EGFR(G719S) = biological target: T17, EGFR(G719S) (Homo sapiens, UniProt P00533, G719S); test: KINOMEscan; format: binding; conditions: read-out: %Ctrl @ 10000nM
T17 construct: purchased DiscoverX KINOMEscan

EPHA3 = biological target: T18, EPHA3 (Homo sapiens, UniProt P29320); test: KINOMEscan; format: binding; conditions: read-out: %Ctrl @ 10000nM
T18 construct: purchased DiscoverX KINOMEscan

FER = biological target: T19, FER (Homo sapiens, UniProt P16591); test: KINOMEscan; format: binding; conditions: read-out: %Ctrl @ 10000nM
T19 construct: purchased DiscoverX KINOMEscan

FLT3(ITD) = format: binding, human
FLT3(R834Q) = biological target: T20, FLT3(R834Q) (Homo sapiens, UniProt P36888, R834Q); test: KINOMEscan; format: binding; conditions: read-out: %Ctrl @ 10000nM
T20 construct: purchased DiscoverX KINOMEscan

IRAK4 = biological target: T21, IRAK4 (Homo sapiens, UniProt Q9NWZ3); test: KINOMEscan; format: binding; conditions: read-out: %Ctrl @ 10000nM
T21 construct: purchased DiscoverX KINOMEscan
T21 sequence (Q9NWZ3 whole entry): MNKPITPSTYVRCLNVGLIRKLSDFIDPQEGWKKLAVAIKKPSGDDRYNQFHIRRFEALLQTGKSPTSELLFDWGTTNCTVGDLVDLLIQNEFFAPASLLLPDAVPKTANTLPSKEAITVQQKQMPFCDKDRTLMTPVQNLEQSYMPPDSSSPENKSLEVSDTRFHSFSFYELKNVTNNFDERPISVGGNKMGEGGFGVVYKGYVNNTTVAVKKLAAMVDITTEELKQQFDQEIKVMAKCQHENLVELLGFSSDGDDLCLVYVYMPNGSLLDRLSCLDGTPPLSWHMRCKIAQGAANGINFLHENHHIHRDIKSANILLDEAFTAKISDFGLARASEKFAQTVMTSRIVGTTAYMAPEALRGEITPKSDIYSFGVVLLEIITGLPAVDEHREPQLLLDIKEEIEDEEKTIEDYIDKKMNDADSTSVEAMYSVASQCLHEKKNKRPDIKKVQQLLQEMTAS

MAK = biological target: T22, MAK (Homo sapiens, UniProt P20794); test: KINOMEscan; format: binding; conditions: read-out: %Ctrl @ 10000nM
T22 construct: purchased DiscoverX KINOMEscan

MEK1 = biological target: T23, MEK1 (Homo sapiens, UniProt Q02750); test: KINOMEscan; format: binding; conditions: read-out: %Ctrl @ 10000nM
T23 construct: purchased DiscoverX KINOMEscan
T23 sequence (Q02750 whole entry): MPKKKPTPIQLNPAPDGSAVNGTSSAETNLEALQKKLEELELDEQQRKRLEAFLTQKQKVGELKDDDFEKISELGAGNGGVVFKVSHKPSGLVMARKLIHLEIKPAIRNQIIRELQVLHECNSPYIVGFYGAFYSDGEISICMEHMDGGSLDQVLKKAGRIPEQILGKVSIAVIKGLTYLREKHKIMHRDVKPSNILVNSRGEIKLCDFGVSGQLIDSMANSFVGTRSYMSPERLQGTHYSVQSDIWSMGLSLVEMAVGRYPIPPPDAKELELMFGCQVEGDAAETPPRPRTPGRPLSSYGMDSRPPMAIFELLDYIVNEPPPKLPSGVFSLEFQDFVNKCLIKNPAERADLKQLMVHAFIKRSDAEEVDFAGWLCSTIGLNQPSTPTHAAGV

MKK7 = biological target: T24, MKK7 (Homo sapiens, UniProt O14733); test: KINOMEscan; format: binding; conditions: read-out: %Ctrl @ 10000nM
T24 construct: purchased DiscoverX KINOMEscan

MLK1 = biological target: T25, MLK1 (Homo sapiens, UniProt P80192); test: KINOMEscan; format: binding; conditions: read-out: %Ctrl @ 10000nM
T25 construct: purchased DiscoverX KINOMEscan

MST3 = biological target: T26, MST3 (Homo sapiens, UniProt Q9Y6E0); test: KINOMEscan; format: binding; conditions: read-out: %Ctrl @ 10000nM
T26 construct: purchased DiscoverX KINOMEscan

MST4 = biological target: T27, MST4 (Homo sapiens, UniProt Q9P289); test: KINOMEscan; format: binding; conditions: read-out: %Ctrl @ 10000nM
T27 construct: purchased DiscoverX KINOMEscan

NIM1 = biological target: T28, NIM1 (Homo sapiens, UniProt Q8IY84); test: KINOMEscan; format: binding; conditions: read-out: %Ctrl @ 10000nM
T28 construct: purchased DiscoverX KINOMEscan

PAK2 = biological target: T29, PAK2 (Homo sapiens, UniProt Q13177); test: KINOMEscan; format: binding; conditions: read-out: %Ctrl @ 10000nM
T29 construct: purchased DiscoverX KINOMEscan

PDPK1 = biological target: T30, PDPK1 (Homo sapiens, UniProt O15530); test: KINOMEscan; format: binding; conditions: read-out: %Ctrl @ 10000nM
T30 construct: purchased DiscoverX KINOMEscan
T30 sequence (O15530 whole entry): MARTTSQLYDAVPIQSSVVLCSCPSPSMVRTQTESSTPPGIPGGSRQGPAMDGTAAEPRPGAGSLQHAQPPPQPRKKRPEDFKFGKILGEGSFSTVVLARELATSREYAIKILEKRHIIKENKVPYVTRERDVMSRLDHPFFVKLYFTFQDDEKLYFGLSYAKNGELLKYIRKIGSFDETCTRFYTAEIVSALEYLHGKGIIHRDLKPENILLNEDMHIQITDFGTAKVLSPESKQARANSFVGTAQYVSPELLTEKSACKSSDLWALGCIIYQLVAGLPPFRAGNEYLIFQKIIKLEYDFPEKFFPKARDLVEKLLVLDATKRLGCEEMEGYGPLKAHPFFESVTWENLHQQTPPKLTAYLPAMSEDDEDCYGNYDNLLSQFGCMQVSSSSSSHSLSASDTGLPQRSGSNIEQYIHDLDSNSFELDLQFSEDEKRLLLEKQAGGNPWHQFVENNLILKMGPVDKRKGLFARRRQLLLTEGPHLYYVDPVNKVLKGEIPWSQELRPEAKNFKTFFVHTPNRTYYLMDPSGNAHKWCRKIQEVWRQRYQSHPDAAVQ

PIK3CA(Q546K) = biological target: T31, PIK3CA(Q546K) (Homo sapiens, UniProt P42336, Q546K); test: KINOMEscan; format: binding; conditions: read-out: %Ctrl @ 10000nM
T31 construct: purchased DiscoverX KINOMEscan
T31 sequence (P42336 whole entry Q546K): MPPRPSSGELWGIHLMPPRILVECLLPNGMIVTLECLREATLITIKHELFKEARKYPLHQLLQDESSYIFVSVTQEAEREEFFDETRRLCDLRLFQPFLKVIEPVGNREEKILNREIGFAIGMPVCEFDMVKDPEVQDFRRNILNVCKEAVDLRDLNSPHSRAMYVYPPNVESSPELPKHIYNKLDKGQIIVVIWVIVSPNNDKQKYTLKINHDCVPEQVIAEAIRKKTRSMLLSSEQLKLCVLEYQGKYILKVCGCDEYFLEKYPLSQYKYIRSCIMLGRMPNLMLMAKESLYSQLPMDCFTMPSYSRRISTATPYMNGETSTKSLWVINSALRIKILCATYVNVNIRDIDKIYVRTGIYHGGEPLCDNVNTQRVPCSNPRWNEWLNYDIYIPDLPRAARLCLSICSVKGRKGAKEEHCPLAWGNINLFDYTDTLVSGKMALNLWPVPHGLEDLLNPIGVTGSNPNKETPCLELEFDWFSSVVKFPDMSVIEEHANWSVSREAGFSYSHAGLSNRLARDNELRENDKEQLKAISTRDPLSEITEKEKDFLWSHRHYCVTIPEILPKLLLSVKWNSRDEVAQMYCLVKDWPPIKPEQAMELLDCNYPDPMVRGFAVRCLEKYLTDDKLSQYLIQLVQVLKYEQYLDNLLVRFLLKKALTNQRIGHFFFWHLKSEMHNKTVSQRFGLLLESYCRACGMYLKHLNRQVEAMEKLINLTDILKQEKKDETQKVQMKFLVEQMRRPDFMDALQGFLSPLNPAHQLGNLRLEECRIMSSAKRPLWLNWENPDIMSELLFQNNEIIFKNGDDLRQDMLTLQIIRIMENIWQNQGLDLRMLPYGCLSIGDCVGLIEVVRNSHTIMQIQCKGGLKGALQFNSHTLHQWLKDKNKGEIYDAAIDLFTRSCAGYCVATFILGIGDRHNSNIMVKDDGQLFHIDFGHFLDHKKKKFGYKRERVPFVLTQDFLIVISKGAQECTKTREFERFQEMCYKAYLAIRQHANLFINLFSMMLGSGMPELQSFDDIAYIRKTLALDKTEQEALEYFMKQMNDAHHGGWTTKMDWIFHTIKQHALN

PLK4 = biological target: T32, PLK4 (Homo sapiens, UniProt O00444); test: KINOMEscan; format: binding; conditions: read-out: %Ctrl @ 10000nM
T32 construct: purchased DiscoverX KINOMEscan

PRKD1 = biological target: T33, PRKD1 (Homo sapiens, UniProt Q15139); test: KINOMEscan; format: binding; conditions: read-out: %Ctrl @ 10000nM
T33 construct: purchased DiscoverX KINOMEscan

PRKG1 = biological target: T34, PRKG1 (Homo sapiens, UniProt Q13976); test: KINOMEscan; format: binding; conditions: read-out: %Ctrl @ 10000nM
T34 construct: purchased DiscoverX KINOMEscan

PRKX = biological target: T35, PRKX (Homo sapiens, UniProt P51817); test: KINOMEscan; format: binding; conditions: read-out: %Ctrl @ 10000nM
T35 construct: purchased DiscoverX KINOMEscan
T35 sequence (P51817 whole entry): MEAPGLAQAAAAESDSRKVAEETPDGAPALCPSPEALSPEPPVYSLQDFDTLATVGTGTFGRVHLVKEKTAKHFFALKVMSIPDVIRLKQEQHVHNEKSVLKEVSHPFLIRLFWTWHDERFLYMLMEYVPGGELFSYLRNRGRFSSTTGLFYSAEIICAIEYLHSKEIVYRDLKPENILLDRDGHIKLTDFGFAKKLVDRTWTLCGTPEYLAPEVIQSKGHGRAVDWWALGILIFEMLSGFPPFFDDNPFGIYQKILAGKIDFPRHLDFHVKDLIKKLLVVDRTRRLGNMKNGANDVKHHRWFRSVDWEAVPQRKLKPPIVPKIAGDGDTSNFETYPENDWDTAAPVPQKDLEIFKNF

QSK = biological target: T36, QSK (Homo sapiens, UniProt Q9Y2K2); test: KINOMEscan; format: binding; conditions: read-out: %Ctrl @ 10000nM
T36 construct: purchased DiscoverX KINOMEscan

ROCK2 = biological target: T37, ROCK2 (Homo sapiens, UniProt O75116); test: KINOMEscan; format: binding; conditions: read-out: %Ctrl @ 10000nM
T37 construct: purchased DiscoverX KINOMEscan

[2] = biological target: T38, RPS6KA5(Kin.Dom.2-C-terminal) (Homo sapiens, UniProt O75582); test: KINOMEscan; format: binding; conditions: read-out: %Ctrl @ 10000nM
T38 construct: RPS6KA5(Kin.Dom.2-C-terminal); purchased DiscoverX KINOMEscan

TRKA = biological target: T39, TRKA (Homo sapiens, UniProt P04629); test: KINOMEscan; format: binding; conditions: read-out: %Ctrl @ 10000nM
T39 construct: purchased DiscoverX KINOMEscan
T39 sequence (P04629 33-796): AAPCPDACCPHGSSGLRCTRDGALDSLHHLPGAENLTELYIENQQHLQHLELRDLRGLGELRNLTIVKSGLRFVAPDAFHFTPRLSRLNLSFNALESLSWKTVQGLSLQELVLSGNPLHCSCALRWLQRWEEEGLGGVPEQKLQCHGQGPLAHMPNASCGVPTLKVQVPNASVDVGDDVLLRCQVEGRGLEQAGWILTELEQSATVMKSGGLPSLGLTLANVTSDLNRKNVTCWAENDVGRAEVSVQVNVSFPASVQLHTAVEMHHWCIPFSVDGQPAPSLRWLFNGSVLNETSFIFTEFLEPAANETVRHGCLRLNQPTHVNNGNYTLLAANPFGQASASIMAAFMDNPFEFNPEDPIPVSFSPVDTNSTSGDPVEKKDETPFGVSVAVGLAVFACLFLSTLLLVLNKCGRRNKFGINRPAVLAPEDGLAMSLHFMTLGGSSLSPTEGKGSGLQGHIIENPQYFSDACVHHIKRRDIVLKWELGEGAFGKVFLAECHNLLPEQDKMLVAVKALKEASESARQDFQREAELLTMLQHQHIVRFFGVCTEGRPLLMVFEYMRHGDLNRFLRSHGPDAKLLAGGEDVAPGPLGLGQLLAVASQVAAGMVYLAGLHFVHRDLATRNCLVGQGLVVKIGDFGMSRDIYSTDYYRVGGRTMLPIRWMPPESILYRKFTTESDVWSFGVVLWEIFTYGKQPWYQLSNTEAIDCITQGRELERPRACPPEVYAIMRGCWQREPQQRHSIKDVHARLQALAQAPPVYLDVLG

ULK1 = biological target: T40, ULK1 (Homo sapiens, UniProt O75385); test: KINOMEscan; format: binding; conditions: read-out: %Ctrl @ 10000nM
T40 construct: DNA label for qPCR (T7 phage fusion or DNA tag); purchased DiscoverX scanMAX; host or cells: E. coli BL21-derived (T7 phage) or HEK-293

WEE2 = biological target: T41, WEE2 (Homo sapiens, UniProt P0C1S8); test: KINOMEscan; format: binding; conditions: read-out: %Ctrl @ 10000nM
T41 construct: DNA label for qPCR (T7 phage fusion or DNA tag); purchased DiscoverX scanMAX; host or cells: E. coli BL21-derived (T7 phage) or HEK-293

WNK1 = biological target: T42, WNK1 (Homo sapiens, UniProt Q9H4A3); test: KINOMEscan; format: binding; conditions: read-out: %Ctrl @ 10000nM
T42 construct: DNA label for qPCR (T7 phage fusion or DNA tag); purchased DiscoverX scanMAX; host or cells: E. coli BL21-derived (T7 phage) or HEK-293

## CC(C)c1ccc(CC(=O)N2CCN(c3ccc(C#N)nn3)CC2)cc1 [PZ-2891, 6-(4-(2-(4-isopropylphenyl)acetyl)piperazin-1-yl)pyridazine-3-carbonitrile]
[1]
  remaining binding at 10 µM: 74%
ACVR1
  remaining binding at 10 µM: 88%
ACVR2A
  remaining binding at 10 µM: 100%
BRAF(V600E)
  remaining binding at 10 µM: 100%
BRK
  remaining binding at 10 µM: 80%
CDC2L1
  remaining binding at 10 µM: 95%
CDK11
  remaining binding at 10 µM: 78%
CDK4-cyclinD3
  remaining binding at 10 µM: 71%
CHEK2
  remaining binding at 10 µM: 79%
CLK2
  remaining binding at 10 µM: 94%
CLK3
  remaining binding at 10 µM: 93%
CLK4
  remaining binding at 10 µM: 98%
CSF1R
  remaining binding at 10 µM: 91%
CSK
  remaining binding at 10 µM: 97%
CSNK1D
  remaining binding at 10 µM: 93%
DDR1
  remaining binding at 10 µM: 81%
EGFR(G719S)
  remaining binding at 10 µM: 91%
EPHA3
  remaining binding at 10 µM: 65%
FER
  remaining binding at 10 µM: 88%
FLT3(ITD)
  %Ctrl @ 10000nM: 99%
FLT3(R834Q)
  remaining binding at 10 µM: 100%
IRAK4
  remaining binding at 10 µM: 93%
MAK
  remaining binding at 10 µM: 69%
MEK1
  remaining binding at 10 µM: 76%
MKK7
  remaining binding at 10 µM: 84%
MLK1
  remaining binding at 10 µM: 81%
MST3
  remaining binding at 10 µM: 73%
MST4
  remaining binding at 10 µM: 91%
NIM1
  remaining binding at 10 µM: 83%
PAK2
  remaining binding at 10 µM: 44%
PDPK1
  remaining binding at 10 µM: 75%
PIK3CA(Q546K)
  remaining binding at 10 µM: 70%
PLK4
  remaining binding at 10 µM: 88%
PRKD1
  remaining binding at 10 µM: 89%
PRKG1
  remaining binding at 10 µM: 99%
PRKX
  remaining binding at 10 µM: 70%
QSK
  remaining binding at 10 µM: 82%
ROCK2
  remaining binding at 10 µM: 100%
[2]
  remaining binding at 10 µM: 96%
TRKA
  remaining binding at 10 µM: 100%
ULK1
  remaining binding at 10 µM: 82%
WEE2
  remaining binding at 10 µM: 99%
WNK1
  remaining binding at 10 µM: 100%
